From US8114589B2, “Self-addressable self-assembling microelectronic integrated systems, component devices, mechanisms, methods, and procedures for molecular biological analysis and diagnostics” (Gamida For Life B.V., priority 1996, dated 2012)
Read-outs that look alike come from different tables or passages of the source. {Amino} = amino group added with ABI Aminolink 2 reagent, used to attach Texas Red

Key:
Ras-G = experiment: Ras-12 single point mutation hybridization with 15-mer probes; assay type: binding
Excerpt: In the Ras-12 example, 15-mer point mutation specific probes were electronically hybridized to 30-mer target sequences attached to the microlocations on test devices. The polarity at the microlocations was biased negative, and the hybrids were subjected to constant current for a given time, providing a defined power level which denatures the mis-match without affecting the perfect match.
Test devices were fabricated from microcapillary tubes as described previously in the specification. Attachment sequences Ras-G and Ras-T were periodate oxidized and covalently bound to the addressed microlocations.
Ras-G microlocation were then hybridized with Ras-1, Ras-2 or Ras-3. Ras-1 is the perfect match to Ras-G. Ras-2 is a one base pair mismatch (G-A). Ras-3 is a two base pair mismatch (G-A and G-T). The G-A mis-match produces the least destabilization to the DNA duplex, and is therefore the most difficult to distinquish from the perfect match.
Conventional hybridization was first carried out and the microlocations were examined fluorescently to measure to what extent complementary sequences were hybridized. The test devices (microcapillaries) were re-mounted and electronic hybridization was then carried out. […] The procedure and results are shown below: […]

ET-10AL capture sequence = experiment: Electronically controlled fluorescent DNA/dye (ethidium bromide) detection; assay type: binding; conditions: peak ethidium bromide fluorescence after positive bias 0.05 mA, 0.03 Volt-Hours; capture ET-10AL
Method: Microcapillary test devices were prepared and hybridized as described in Example 2 and 3. Ethidium bromide (EB) was added to the buffer solution (˜0.05 mM EB final concentration) and the test devices were biased negative to concentrate EB (positively charged) at both the hybridized and un-hybridized microlocations. The test devices were observed by epifluorescece microscopy at 550 nm excitation and 600 nm emission.
The test devices were re-mounted biased positive
constant current at 0.05 mA for 0.03 Volt-Hours, to selectively remove the EB. Fluorescence at the un-hybridized microlocations diminished while the hybridized microlocations retained a very high level of EB fluorescence. The results are given below:
Fluorescent signal was measured using an ICCD imaging

[1] = target: streptavidin/biotin DNA probe (Streptomyces avidinii, UniProt P22629); experiment: Streptavidin/biotin DNA probe capture affinity on the APEX chip; assay type: binding
[2] = cited from earlier work; for pK1 / pK2 / pK3: Table 2
DNA = DNA transport (accumulation) on the APEX chip; conditions: in words, same field conditions
[3] = Buffer capacity, pH and conductivity of buffers used on the APEX chip; conditions: for PH: NaPO4: 20 mM adjusted to pH 7.4
[4] = test system: Reporter DNA to DNA1 or PNA1 capture; experiment: Hybridization of phosphodiester-linked oligonucleotides versus PNA analogues; conditions: 200 nA versus 500 nA
btrRCA5 to ATA5 [5] = experiment: Passive hybridization at different pHs
Excerpt: Passive Hybridization at Different pHs—Biotinylated ATA5 and ATA4 were electronically targeted to adjacent sites upon streptavidin/agarose coated microarrays. […] A parallel hybridization was done in 6×SSC. After this hybridization period, the chips were washed in 0.2×STE, 0.1% sodium dodecyl sulfate, as above and the remaining fluorescence at each site quantitated. Fluorescence values present at ATA4 sites were subtracted from adjacent ATA5 sites and the remaining fluorescence converted to attomol btrRCA5 specifically hybridized. Additional experiments repeated this methodology and also examined buffer adjusted with concentrated acetic acid (at the pI and at pH 6 and 5).

[6] = test system: btrRCA5 to ATA5 capture oligonucleotide; experiment: Accumulation and electronic hybridization in test buffers; conditions: in words
Method: Microelectronic Chips, Permeation Layer and Instrumentation—These have been described previously with the following exception. The permeation layer employed herein has an underlayer of agarose beneath the top streptavidin-containing agarose layer (approximately one micron in total thickness). To make the underlayer, […] glyoxal agarose (2%) was spun on at 2000 rpms for 20 sec prior to the application of the streptavidin-agarose layer. In brief, the 5580 series APEX chip used for these experiments consists of a 5×5 array of […] circular microelectrodes with […] microelectrodes at each corner of the array. Chips were mounted on a micromanipulator stage and the microelectrodes activated by a power supply and appropriately controlled relay switches. Fluorescently labeled oligonucleotides on the chip were visualized using oblique illumination with two 594 nm HeNe lasers and the images were quantified using either NIH Image or IPLab Spectrum software packages.
Accumulation and Hybridization—Two biotinylated capture oligonucleotides, ATA5 and ATA4 were electronically transported and localized at adjacent microelectrodes. The solution was removed and the chip washed 3-4× in test buffer. Buffers employed in these studies are listed in Table 3 and were utilized at the listed pH values and concentrations presented.
The L-isomers of amino acids were used, unless otherwise noted. The chip was equilibrated in test buffer for 5-10 min. Then fresh buffer containing 10 nM BODIPY-Texas Red labeled RCA5 (btrRCA5), an oligonucleotide complementary to ATA5 but not ATA4 (RS paper) was applied.
The […] microelectrodes were employed as cathodes and one microelectrode within the array used as the corresponding anode. Accumulation was assessed by sourcing a 500 nA constant current to individual microelectrodes for 30 sec and monitoring the accumulation of fluorescence at the positively-biased (anode) site in the microelectrode array. Signal arising from non-fluorescent sources (ie. thermal noise, etc.) was subtracted. Experiments examining the effect of different currents upon signal accumulation were conducted in a similar fashion except that the applied current varied from 100 nA to 1 mA. […] For the comparison between conductivities of various buffers, the data is presented as fold increase over initial fluorescence to account for chip-to-chip variation as well as laser illumination variations in signal levels. For other experiments, the data is presented as attomol product versus time, after converting^2 the observed fluorescence intensity to moles of labeled oligonucleotide.
Following accumulation at one microelectrode location, the buffer was removed and fresh buffer containing btrRCA5 applied. An adjacent microelectrode was then sourced in a similar fashion. Upon completion, the buffer was removed and the chip washed 5-7× with test buffer without btrRCA5. The pair of previously targeted microelectrodes were then illuminated and the fluorescence present at each site quantified. Control experiments utilized a bodipy-Texas Red labeled oligonucleotide complementary to ATA4 to verify the integrity and concentration of the ATA4 capture oligonucleotide. Percent hybridization efficiency was calculated as follows: (complementary oligonucleotide signal−noncomplementary signal)/(signal present immediately prior to the end of the applied current)×100.

[7] = test system: target DNA to the specific capture DNA; experiment: DNA hybridization sensitivity on the APEX chip; conditions: normal DNA
btrRCA5 to ATA5 [8] = experiment: Passive hybridization versus electric field hybridization; conditions: 50 mM
Method: Passive Hybridization versus Electric Field Hybridization—ATA5 was electrically targeted to the first four columns of the microarray on streptavidin/agarose coated chips prepared as above, and ATA4 was targeted to the remaining column. For passive hybridization, either 5.0 nM or 0.5 nM btrRCA5 in 5×SSC (1×=0.15 M NaCl, 15 mM sodium citrate, pH 7.0) was applied for 1 min, then the chips were washed 6× in buffer and imaged. For the 3 min timepoint, fresh buffer containing btrRCA5 was applied and incubated for an additional 2 min to achieve 3 min cumulative incubation time. This approach was repeated for the remaining time points. […] Five sites, 4 with ATA5 previously attached and 1 with ATA4, were electronically targeted using 3.1 V total, (approximately 500 nA/site). […] In both passive and electric field mediated hybridization, the background signal present at the ATA4 sites was subtracted from the signal present at ATA5 sites.

streptavidin/biotin DNA probe, sequence (P22629 25-183, species assumed): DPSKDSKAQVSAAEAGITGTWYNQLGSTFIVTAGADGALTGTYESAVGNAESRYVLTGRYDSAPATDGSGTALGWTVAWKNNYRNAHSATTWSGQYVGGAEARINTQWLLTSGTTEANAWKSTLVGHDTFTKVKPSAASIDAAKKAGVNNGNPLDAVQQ

3′-CC-GCG-GCC-GCC-ACA-C-5′-(TR) (DNA CCGCGGCCGCCACAC; TR label, further chemistry not given here; listed 3' to 5') [Ras-1]
signal ratio of perfect match (Ras-G/Ras-1) to 1 bp mis-match (Ras-G/Ras-2) (Ras-G; conventional hybridization, 5×SSC 15 minutes 40° C., washes): about 10 to 1 | signal ratio of perfect match (Ras-G/Ras-1) to 1 bp mis-match (Ras-G/Ras-2) (Ras-G; electronic stringency control, 0.15 mA at 150 V for 4 minutes, 20° C.): > 100 to 1

5′-Amino-TGCGAGCTGCAGTCAGACAT (DNA TGCGAGCTGCAGTCAGACAT; DNA, 5' {Amino}, backbone not given here; further chemistry not fully specified) [ET-21A]
Normalized Signal (ET-10AL capture sequence): 1

5′-Amino-CCT GCT CAT GAG TCT CTC (DNA CCTGCTCATGAGTCTCTC; DNA, 5' {Amino}, backbone not given here; further chemistry not fully specified) [ET-11AL]
Normalized Signal (ET-10AL capture sequence): >200

NCCCC[C@H](N)C(=O)O [Lysine]
SA-Biotin T12 Sensitivity [1]: >7.5 × 10^10 | pK1 [2]: pK1 - 2.2 | pK2 [2]: pK2 - 8.9 | pK3 [2]: pK3 - 10.3 | pI [2]: 9.74 | transport (DNA): fair transport | conductivity [3]: 477.0 μS | PH [3]: 9.6

N[C@@H](Cc1c[nH]cn1)C(=O)O [Histidine]
DNA:DNA hybridization [4]: only occurs well at 500 nA | PNA:DNA hybridization [4]: occurs at roughly equal efficiencies at either current | SA-Biotin T12 Sensitivity [1]: 3 × 10^6 | passive hybridization (btrRCA5 to ATA5 [5]; at its pI (pH 7.5), 50 mM): does not facilitate hybridization | passive hybridization (btrRCA5 to ATA5 [5]; pH 6.0 and 5.0, 50 mM): accelerated hybridization | support of sequence specific electronic hybridization [6]: demonstrated specific hybridization | pK1 [2]: pK1 - 1.8 | pK2 [2]: pK2 - 6.0 | pK3 [2]: pK3 - 9.0 | pI [2]: 7.47 | pH of the solution (200 nA): > 6 | pH of the solution (500 nA): > 5 | pH above the surface of the permeation layer (not told): > 5 | transport (DNA): good transport | Hybridization Sensitivity of DNA [7]: 3×10^6 targets | conductivity [3]: 212.0 μS | PH [3]: 7.6 | conductivity ([3]; hi purity): 172.0 μS | hybridization in the absence of an applied electric field (btrRCA5 to ATA5 [8]): No hybridization was observed
